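Tested at 5 concentrations; 48 h exposure; 96-well plates; endpoints linearly interpolated, else capped at highest concentration. GI50 marks 50% less growth. TGI marks complete inhibition of growth.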
Assays:
Assay in all cases: NCI-60 cell line screen, 48 h
[1] = test system: 786-0 renal
[2] = test system: A498 renal
[3] = test system: A549 NSCLC
[4] = test system: ACHN renal
[5] = test system: BT-549 breast
[6] = test system: CAKI-1 renal
[7] = test system: CCRF-CEM leukemia
[8] = test system: COLO 205 colon
[9] = test system: DU-145 prostate
[10] = test system: EKVX NSCLC
[11] = test system: HCC-2998 colon
[12] = test system: HCT-116 colon
[13] = test system: HCT-15 colon
[14] = test system: HL-60(TB) leukemia
[15] = test system: HOP-62 NSCLC
[16] = test system: HOP-92 NSCLC
[17] = test system: HS 578T breast
[18] = test system: HT29 colon
[19] = test system: IGROV1 ovarian
[20] = test system: K-562 leukemia
[21] = test system: KM12 colon
[22] = test system: LOX IMVI melanoma
[23] = test system: M14 melanoma
[24] = test system: MALME-3M melanoma
[25] = test system: MCF7 breast
[26] = test system: MDA-MB-231 breast
[27] = test system: MOLT-4 leukemia
[28] = test system: NCI-H226 lung
[29] = test system: NCI-H23 lung
[30] = test system: NCI-H460 lung
[31] = test system: NCI-H522 lung
[32] = test system: NCI/ADR-RES ovarian
[33] = test system: OVCAR-3 ovarian
[34] = test system: OVCAR-4 ovarian
[35] = test system: OVCAR-5 ovarian
[36] = test system: OVCAR-8 ovarian
[37] = test system: PC-3 prostate
[38] = test system: RPMI-8226 leukemia
[39] = test system: RXF 393 renal
[40] = test system: SF-268 CNS
[41] = test system: SF-295 CNS
[42] = test system: SF-539 CNS
[43] = test system: SK-MEL-2 melanoma
[44] = test system: SK-MEL-28 melanoma
[45] = test system: SK-MEL-5 melanoma
[46] = test system: SK-OV-3 ovarian
[47] = test system: SN12C renal
[48] = test system: SNB-19 CNS
[49] = test system: SNB-75 CNS
[50] = test system: SR leukemia
[51] = test system: SW-620 colon
[52] = test system: T-47D breast
[53] = test system: TK-10 renal
[54] = test system: U251 CNS
[55] = test system: UACC-62 melanoma
[56] = test system: UO-31 renal

With `CCOC(=O)/C=C/C1=C(c2ccsc2)c2ccc(OC)cc2CC1` the GI50 [1] was 511 nM, the TGI [1] was 30.3 µM and the GI50 [2] was 512 nM. The TGI [2] was over 31.3 µM, the GI50 [3] was 671 nM and the TGI [3] was over 100 µM. For the same compound, the GI50 [4] was 701 nM, the TGI [4] was over 52.7 µM and the GI50 [5] was 787 nM. The TGI [5] was over 46.9 µM, the GI50 [6] was 387 nM and the TGI [6] was over 100 µM. It also gave a GI50 [7] of 328 nM, a GI50 [8] of 213 nM and a TGI [8] of 1360 nM. It also gave a GI50 [9] of 473 nM, a TGI [9] of over 36.5 µM and a GI50 [10] of 6 µM. The TGI [10] was over 100 µM, the GI50 [11] was 4.57 µM and the TGI [11] was 26.7 µM. It also gave a GI50 [12] of 376 nM, a TGI [12] of over 39.4 µM and a GI50 [13] of 222 nM. For the same compound, the TGI [13] was over 20.2 µM, the GI50 [14] was 206 nM and the TGI [14] was 794 nM. The GI50 [15] was 599 nM, the TGI [15] was over 100 µM and the GI50 [16] was 2290 nM. The TGI [16] was over 55.4 µM, the GI50 [17] was 430 nM and the TGI [17] was over 38.7 µM. It also gave a GI50 [18] of 275 nM, a TGI [18] of over 41.4 µM and a GI50 [19] of 6.26 µM. For the same compound, the TGI [19] was over 100 µM, the GI50 [20] was 59.2 nM and the TGI [20] was 12.5 µM. For the same compound, the GI50 [21] was 169 nM, the TGI [21] was 15.4 µM and the GI50 [22] was 610 nM. The TGI [22] was over 50.1 µM, the GI50 [23] was 378 nM and the TGI [23] was over 100 µM. It also gave a GI50 [24] of 205 nM, a TGI [24] of over 100 µM and a GI50 [25] of 364 nM. For the same compound, the TGI [25] was 26.4 µM, the GI50 [26] was 924 nM and the TGI [26] was 19.7 µM. For the same compound, the GI50 [27] was 512 nM, the TGI [27] was 12.9 µM and the GI50 [28] was 769 nM. For the same compound, the TGI [28] was over 62.8 µM, the GI50 [29] was 525 nM and the TGI [29] was over 100 µM. It also gave a GI50 [30] of 2210 nM, a TGI [30] of 15.8 µM and a GI50 [31] of 260 nM. For the same compound, the TGI [31] was over 100 µM, the GI50 [32] was 285 nM and the GI50 [33] was 205 nM. It also gave a TGI [33] of 686 nM, a GI50 [34] of 2330 nM and a TGI [34] of over 100 µM. It also gave a GI50 [35] of 1660 nM, a TGI [35] of over 100 µM and a GI50 [36] of 661 nM. It also gave a TGI [36] of over 41.9 µM, a GI50 [37] of 202 nM and a GI50 [38] of 292 nM. It also gave a TGI [38] of 4.15 µM, a GI50 [39] of 235 nM and a TGI [39] of 5.02 µM. The GI50 [40] was 656 nM, the TGI [40] was 58.1 µM and the GI50 [41] was 349 nM. The TGI [41] was 20.6 µM, the GI50 [42] was 388 nM and the TGI [42] was 6.13 µM. For the same compound, the GI50 [43] was 3.66 µM, the TGI [43] was over 24.7 µM and the GI50 [44] was 982 nM. The TGI [44] was over 49.8 µM, the GI50 [45] was 195 nM and the TGI [45] was 11.2 µM. For the same compound, the GI50 [46] was 359 nM, the TGI [46] was over 85.6 µM and the GI50 [47] was 837 nM. It also gave a TGI [47] of over 23.9 µM, a GI50 [48] of 357 nM and a TGI [48] of over 100 µM. For the same compound, the GI50 [49] was 263 nM, the TGI [49] was over 100 µM and the GI50 [50] was 156 nM. For the same compound, the TGI [50] was 6.37 µM, the GI50 [51] was 349 nM and the TGI [51] was over 100 µM. The GI50 [52] was 330 nM, the TGI [52] was over 100 µM and the GI50 [53] was 716 nM. The TGI [53] was over 100 µM, the GI50 [54] was 405 nM and the TGI [54] was over 100 µM. For the same compound, the GI50 [55] was 1790 nM, the TGI [55] was 26.2 µM and the GI50 [56] was 7.6 µM. It also gave a TGI [56] of over 100 µM.

From PubChem BioAssay (NCI)
